Data from US6737383B1, “Herbicidal oxadiazolidines” (priority 1999, dated 2004).

Assays:
bedstraw = assay: Test B pre/postemergence bedstraw; format: in vivo, Galium aparine
In short: (§1)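 Test chemicals in a non-phytotoxic solvent mixture with surfactant were sprayed preemergence onto planted seeds and postemergence onto plants 2 to 18 cm tall (1- to 4-leaf stage). After twelve to sixteen days in a greenhouse, injury was visually rated against untreated controls from 0 (no effect) to 10 (complete control).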

blackgrass = assay: Test B pre/postemergence blackgrass; format: in vivo, Alopecurus myosuroides
In short: as §1

surinam grass = assay: Test B pre/postemergence surinam grass; format: in vivo, Brachiaria decumbens
In short: as §1

cocklebur = assay: Test B pre/postemergence cocklebur; format: in vivo, Xanthium strumarium
In short: as §1

corn = assay: Test B pre/postemergence corn; format: in vivo, Zea mays
In short: as §1

giant foxtail = assay: Test B pre/postemergence giant foxtail; format: in vivo, Setaria faberii
In short: as §1

morningglory = assay: Test B pre/postemergence morningglory; format: in vivo, Ipomoea hederacea
In short: as §1

pigweed = assay: Test B pre/postemergence pigweed; format: in vivo, Amaranthus retroflexus
In short: as §1

rape = assay: Test B pre/postemergence rape; format: in vivo, Brassica napus
In short: as §1

soybean = assay: Test B pre/postemergence soybean; format: in vivo, Glycine max
In short: as §1

sugar beet = assay: Test B pre/postemergence sugar beet; format: in vivo, Beta vulgaris; details: for Plant response rating, Sugarbeets: Rate 250 g/ha
In short: as §1

velvetleaf = assay: Test B pre/postemergence velvetleaf; format: in vivo, Abutilon theophrasti; details: for Plant response rating, Velvetleaf: Rate 250 g/ha
In short: as §1

wheat = assay: Test B pre/postemergence wheat; format: in vivo, Triticum aestivum; details: for Plant response rating, Wheat: Rate 250 g/ha
In short: as §1

wild oat = assay: Test B pre/postemergence wild oat; format: in vivo, Avena fatua; details: for Plant response rating, Wild oats: Rate 250 g/ha
In short: as §1

rice = assay: Test B flood test rice; format: in vivo, Oryza sativa
In short: (§2)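 Each value is a visual injury score relative to controls, with 10 meaning complete control and 0 no effect. Evaluation took place twelve to sixteen days after the 2-leaf-stage plants were treated and kept in the greenhouse.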

smallflower flatsedge = assay: Test B flood test smallflower flatsedge; format: in vivo, Cyperus difformis
In short: as §2

[1] = Postemergence, Rate 62 g/ha, scale 0 to 10, 0 is no effect, 10 is complete control
[2] = Postemergence, Rate 250 g/ha, scale 0 to 10, 0 no effect, 10 complete control
[3] = Preemergence, Rate 62 g/ha, scale 0 to 10 (0 no effect, 10 complete control)
[4] = Preemergence, Rate 125 g/ha, scale 0 to 10 (0 no effect, 10 complete control)
[5] = Preemergence, Rate 250 g/ha, scale of 0 to 10 where 0 is no effect and 10 is complete control
[6] = Preemergence, Rate 500 g/ha, scale 0 to 10 (0 no effect, 10 complete control)
[7] = Rate 125 g/ha, Postemergence, scale 0 to 10, 0 no effect, 10 complete control
[8] = Postemergence, Rate 125 g/ha, scale of 0 to 10 where 0 is no effect and 10 is complete control
[9] = Rate 62 g/ha, Postemergence, scale of 0 to 10 where 0 is no effect and 10 is complete control
[10] = Rate 500 g/ha, Postemergence, scale 0 to 10, 0 no effect, 10 complete control
[11] = Rate 250 g/ha, Postemergence, scale 0 to 10, 0 is no effect, 10 is complete control
[12] = Preemergence, Rate 125 g/ha, 0 is no effect, 10 is complete control
[13] = Preemergence, scale of 0 to 10 where 0 is no effect and 10 is complete control
[14] = Postemergence, scale 0 to 10, 0 is no effect, 10 is complete control
[15] = Postemergence (flood test species), Rate 125 g/ha, scale of 0 to 10 where 0 is no effect and 10 is complete control
[16] = Rate 62 g/ha, Postemergence section, flood test species, scale of 0 to 10 where 0 is no effect and 10 is complete control
[17] = Rate 250 g/ha, Postemergence (flood test), scale 0 to 10, 0 is no effect, 10 is complete control
[18] = Rate 250 g/ha, headed Pre-emergence (flood test species), scale 0 to 10 (0 no effect, 10 complete control)
[19] = Rate 500 g/ha, headed Pre-emergence (flood test species), scale 0 to 10 (0 no effect, 10 complete control)
[20] = Rate 500 g/ha, listed under Postemergence (flood test species), scale 0 to 10, 0 no effect, 10 complete control
[21] = Rate 2000 g/ha, Pre-emergence (as headed), scale 0 to 10

CCn1c(=O)on(C(=O)N(c2ccc(F)cc2F)C(C)C)c1=O [Compound 116]
Bedstraw plant response rating (bedstraw; [1]): 0
Bedstraw plant response rating (bedstraw; [2]): 9
Bedstraw plant response rating (bedstraw; [3]): 2
Plant response rating, Bedstraw (bedstraw; [4]): 8
Plant response rating, Bedstraw (bedstraw; [5]): 9
Bedstraw plant response rating (bedstraw; [6]): 9
Bedstraw plant response rating (bedstraw; [7]): 6
Blackgrass plant response rating (blackgrass; [8]): 9
Blackgrass plant response rating (blackgrass; [2]): 9
Blackgrass plant response rating (blackgrass; [3]): 9
Plant response rating, Blackgrass (blackgrass; [4]): 9
Plant response rating, Blackgrass (blackgrass; [5]): 10
Blackgrass plant response rating (blackgrass; [6]): 10
Blackgrass plant response rating (blackgrass; [9]): 9
Blackgrass plant response rating (blackgrass; [10]): 9
B. signalgrass plant response rating (surinam grass; [1]): 8
B. signalgrass plant response rating (surinam grass; [2]): 9
B. signalgrass plant response rating (surinam grass; [3]): 4
Plant response rating, B. signalgrass (surinam grass; [4]): 8
Plant response rating, B. signalgrass (surinam grass; [5]): 10
B. signalgrass plant response rating (surinam grass; [6]): 10
B. signalgrass plant response rating (surinam grass; [7]): 9
B. signalgrass plant response rating (surinam grass; Rate 500 g/ha, Postemergence, scale of 0 to 10 where 0 is no effect and 10 is complete control): 9
Cocklebur plant response rating (cocklebur; [8]): 0
Cocklebur plant response rating (cocklebur; [2]): 3
Cocklebur plant response rating (cocklebur; [3]): 0
Plant response rating, Cocklebur (cocklebur; [4]): 0
Plant response rating, Cocklebur (cocklebur; [5]): 0
Cocklebur plant response rating (cocklebur; [6]): 5
Cocklebur plant response rating (cocklebur; [9]): 0
Cocklebur plant response rating (cocklebur; [10]): 5
Corn plant response rating (corn; [8]): 0
Corn plant response rating (corn; [2]): 2
Corn plant response rating (corn; [3]): 0
Plant response rating, Corn (corn; [4]): 2
Plant response rating, Corn (corn; [5]): 6
Corn plant response rating (corn; [6]): 9
Corn plant response rating (corn; [9]): 0
Corn plant response rating (corn; [10]): 7
Giant foxtail plant response rating (giant foxtail; [8]): 9
Giant foxtail plant response rating (giant foxtail; [2]): 9
Giant foxtail plant response rating (giant foxtail; [3]): 10
Plant response rating, Giant foxtail (giant foxtail; [4]): 10
Plant response rating, Giant foxtail (giant foxtail; [5]): 10
Giant foxtail plant response rating (giant foxtail; [6]): 10
Giant foxtail plant response rating (giant foxtail; [9]): 9
Giant foxtail plant response rating (giant foxtail; [10]): 9
Morningglory plant response rating (morningglory; [8]): 4
Morningglory plant response rating (morningglory; [2]): 4
Morningglory plant response rating (morningglory; [3]): 0
Plant response rating, Morningglory (morningglory; [4]): 0
Plant response rating, Morningglory (morningglory; [5]): 4
Morningglory plant response rating (morningglory; [6]): 8
Morningglory plant response rating (morningglory; [9]): 2
Morningglory plant response rating (morningglory; [10]): 7
Redroot pigweed plant response rating (pigweed; [8]): 0
Redroot pigweed plant response rating (pigweed; [3]): 10
Plant response rating, Redroot pigweed (pigweed; [4]): 10
Plant response rating, Redroot pigweed (pigweed; [5]): 10
Redroot pigweed plant response rating (pigweed; [6]): 10
Redroot pigweed plant response rating (pigweed; [9]): 0
Plant response rating, Redroot pigweed (pigweed; [11]): 8
Redroot pigweed plant response rating (pigweed; [10]): 8
Rape plant response rating (rape; [8]): 0
Rape plant response rating (rape; [2]): 8
Rape plant response rating (rape; [3]): 6
Plant response rating, Rape (rape; [4]): 9
Plant response rating, Rape (rape; [5]): 10
Rape plant response rating (rape; [6]): 10
Rape plant response rating (rape; [9]): 0
Rape plant response rating (rape; [10]): 9
Soybean plant response rating (soybean; [8]): 6
Soybean plant response rating (soybean; [3]): 0
Plant response rating, Soybean (soybean; [4]): 7
Plant response rating, Soybean (soybean; [5]): 9
Soybean plant response rating (soybean; [6]): 9
Soybean plant response rating (soybean; [9]): 3
Plant response rating, Soybean (soybean; [11]): 6
Soybean plant response rating (soybean; [10]): 8
Sugarbeets plant response rating (sugar beet; [8]): 3
Sugarbeets plant response rating (sugar beet; [3]): 9
Sugarbeets plant response rating (0 to 10 scale) (sugar beet; [12]): 10
Plant response rating, Sugarbeets (sugar beet; [13]): 10
Sugarbeets plant response rating (sugar beet; [6]): 10
Sugarbeets plant response rating (sugar beet; [9]): 2
Plant response rating, Sugarbeets (sugar beet; [14]): 8
Sugarbeets plant response rating (sugar beet; [10]): 8
Velvetleaf plant response rating (velvetleaf; [8]): 4
Velvetleaf plant response rating (velvetleaf; [3]): 8
Velvetleaf plant response rating (0 to 10 scale) (velvetleaf; [12]): 9
Plant response rating, Velvetleaf (velvetleaf; [13]): 10
Velvetleaf plant response rating (velvetleaf; [6]): 10
Velvetleaf plant response rating (velvetleaf; [9]): 4
Plant response rating, Velvetleaf (velvetleaf; [14]): 7
Velvetleaf plant response rating (velvetleaf; [10]): 8
Wheat plant response rating (wheat; [8]): 6
Wheat plant response rating (wheat; [3]): 3
Wheat plant response rating (0 to 10 scale) (wheat; [12]): 5
Plant response rating, Wheat (wheat; [13]): 8
Wheat plant response rating (wheat; [6]): 8
Wheat plant response rating (wheat; [9]): 0
Plant response rating, Wheat (wheat; [14]): 7
Wheat plant response rating (wheat; [10]): 8
Wild oats plant response rating (wild oat; [8]): 7
Wild oats plant response rating (wild oat; [3]): 7
Wild oats plant response rating (0 to 10 scale) (wild oat; [12]): 7
Plant response rating, Wild oats (wild oat; [13]): 10
Wild oats plant response rating (wild oat; [6]): 10
Wild oats plant response rating (wild oat; [9]): 3
Plant response rating, Wild oats (wild oat; [14]): 7
Wild oats plant response rating (wild oat; [10]): 8
Rice plant response rating (rice; [15]): 0
Rice plant response rating (rice; [16]): 0
Plant response rating, Rice (rice; [17]): 0
Rice plant response rating (rice; [18]): 0
Plant response rating, Rice (rice; [19]): 0
Rice plant response rating (rice; [20]): 0
Rice plant response rating (rice; Rate 1000 g/ha, Pre-emergence (as headed), scale 0 to 10): 0
Rice plant response rating (rice; [21]): 4
S. Flatsedge plant response rating (smallflower flatsedge; [15]): 0
S. Flatsedge plant response rating (smallflower flatsedge; Pre-emergence, Rate 1000 g/ha, scale 0 to 10 (0 no effect, 10 complete control)): 0
S. Flatsedge plant response rating (smallflower flatsedge; [16]): 0
Plant response rating, S. Flatsedge (smallflower flatsedge; [17]): 0
S. Flatsedge plant response rating (smallflower flatsedge; [18]): 0
Plant response rating, S. Flatsedge (smallflower flatsedge; [19]): 0
S. Flatsedge plant response rating (smallflower flatsedge; [20]): 0
S. Flatsedge plant response rating (smallflower flatsedge; [21]): 9
